The values that follow come from the supplement of paper PMC10307832.

Experiment in all cases: relative viability (nuclei count vs DMSO), 5 days (fraction); higher = more cells survive
Compound in the experiment “BI-D1870 + Bortezomib”: CC(C)CCN1c2nc(Nc3cc(F)c(O)c(F)c3)ncc2N(C)C(=O)C1C [BI-D1870] + CC(C)C[C@H](NC(=O)[C@H](Cc1ccccc1)NC(=O)c1cnccn1)B(O)O [Bortezomib] (partner 0.002 µM)
The essentials: (§1)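 One day after seeding in 1536-well plates, lung cancer cell lines were dosed by pin tool. Dosing was either single-drug or a fixed anchor-drug dose plus five library-drug doses (not always all listed) in √10 steps. After 5 days, nuclei were stained in one fix-and-stain step and counted on 4× images, and relative viability is the nuclei count of treated wells over that of vehicle wells, given as the median of duplicate plates.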

Compound in the experiment “Zebularine + Bortezomib”: O=c1ncccn1[C@@H]1O[C@H](CO)[C@@H](O)[C@H]1O [Zebularine] + CC(C)C[C@H](NC(=O)[C@H](Cc1ccccc1)NC(=O)c1cnccn1)B(O)O [Bortezomib] (partner 0.002 µM)
The essentials:
as §1

Compound in the experiment “Zebularine + AZD7762”: O=c1ncccn1[C@@H]1O[C@H](CO)[C@@H](O)[C@H]1O [Zebularine] + NC(=O)Nc1cc(-c2cccc(F)c2)sc1C(=O)N[C@H]1CCCNC1 [AZD7762] (partner 0.2 µM)
The essentials:
as §1

Compound in the experiment “BI-D1870 + Crizotinib”: CC(C)CCN1c2nc(Nc3cc(F)c(O)c(F)c3)ncc2N(C)C(=O)C1C [BI-D1870] + C[C@@H](Oc1cc(-c2cnn(C3CCNCC3)c2)cnc1N)c1c(Cl)ccc(F)c1Cl [Crizotinib] (partner 1 µM)
The essentials: as §1

As to NCI-H1651, the relative viability stood at 1.06 with BI-D1870 + Bortezomib (first compound 0.04 µM); 0.943 in the experiment with BI-D1870 + Bortezomib (first compound 0.1265 µM); 0.885 with BI-D1870 + Bortezomib (first compound 0.4 µM); 1.01 with BI-D1870 + Bortezomib (first compound 1.265 µM); 0.903 in the experiment with BI-D1870 + Bortezomib (first compound 4 µM); 0.979 in the experiment with Zebularine + Bortezomib (first compound 1 µM). Besides, the relative viability came out at 0.935 with Zebularine + Bortezomib (first compound 3.162 µM); 0.582 in the experiment with Zebularine + Bortezomib (first compound 10 µM); 0.947 with Zebularine + Bortezomib (first compound 31.62 µM); 0.609 with Zebularine + Bortezomib (first compound 100 µM); 0.506 with Zebularine + AZD7762 (first compound 1 µM); 0.486 in the experiment with Zebularine + AZD7762 (first compound 3.162 µM). Also, the relative viability in the experiment with Zebularine + AZD7762 (first compound 10 µM) was 0.445; with Zebularine + AZD7762 (first compound 31.62 µM) it was 0.466; in the experiment with Zebularine + AZD7762 (first compound 100 µM) it was 0.294; with BI-D1870 + Crizotinib (first compound 0.04 µM) it was 0.91; with BI-D1870 + Crizotinib (first compound 0.1265 µM) it was 0.821; in the experiment with BI-D1870 + Crizotinib (first compound 0.4 µM), 0.821. Moreover, the relative viability stood at 0.939 in the experiment with BI-D1870 + Crizotinib (first compound 1.265 µM) and 0.872 with BI-D1870 + Crizotinib (first compound 4 µM).

NCI-H1755: the relative viability with BI-D1870 + Bortezomib (first compound 0.04 µM) was 1.07; with BI-D1870 + Bortezomib (first compound 0.1265 µM) it was 0.921; with BI-D1870 + Bortezomib (first compound 0.4 µM) it was 0.949; with BI-D1870 + Bortezomib (first compound 1.265 µM) it was 1.09; with BI-D1870 + Bortezomib (first compound 4 µM) it was 0.937; with Zebularine + Bortezomib (first compound 1 µM) it was 1.03. In addition, the relative viability with Zebularine + Bortezomib (first compound 3.162 µM) turned out to be 0.952; with Zebularine + Bortezomib (first compound 10 µM), 0.739; with Zebularine + Bortezomib (first compound 31.62 µM) it was 1.08; in the experiment with Zebularine + Bortezomib (first compound 100 µM), 0.415; with Zebularine + AZD7762 (first compound 1 µM), 0.411; in the experiment with Zebularine + AZD7762 (first compound 3.162 µM), 0.505. Further, the relative viability with Zebularine + AZD7762 (first compound 10 µM) was 0.384; with Zebularine + AZD7762 (first compound 31.62 µM), 0.611; in the experiment with Zebularine + AZD7762 (first compound 100 µM), 0.36; in the experiment with BI-D1870 + Crizotinib (first compound 0.04 µM), 0.977; with BI-D1870 + Crizotinib (first compound 0.1265 µM), 0.838; in the experiment with BI-D1870 + Crizotinib (first compound 0.4 µM) it was 0.876. Also, the relative viability was 0.829 with BI-D1870 + Crizotinib (first compound 1.265 µM) and 0.762 with BI-D1870 + Crizotinib (first compound 4 µM).

For HARA, the relative viability with BI-D1870 + Bortezomib (first compound 0.04 µM) was 1.03; with BI-D1870 + Bortezomib (first compound 0.1265 µM), 1.03; in the experiment with BI-D1870 + Bortezomib (first compound 0.4 µM), 1.22; with BI-D1870 + Bortezomib (first compound 1.265 µM), 1.18; with BI-D1870 + Bortezomib (first compound 4 µM), 0.943; with Zebularine + Bortezomib (first compound 1 µM) it was 1.14. Moreover, the relative viability with Zebularine + Bortezomib (first compound 3.162 µM) came out at 1.11; in the experiment with Zebularine + Bortezomib (first compound 31.62 µM) it was 1.09; with Zebularine + Bortezomib (first compound 100 µM) it was 0.86; in the experiment with Zebularine + AZD7762 (first compound 1 µM), 0.417; in the experiment with Zebularine + AZD7762 (first compound 3.162 µM) it was 0.31; in the experiment with Zebularine + AZD7762 (first compound 10 µM), 0.303. Also, the relative viability in the experiment with Zebularine + AZD7762 (first compound 31.62 µM) stood at 0.371; with Zebularine + AZD7762 (first compound 100 µM), 0.336; with BI-D1870 + Crizotinib (first compound 0.04 µM), 1.15; in the experiment with BI-D1870 + Crizotinib (first compound 0.1265 µM), 0.941; with BI-D1870 + Crizotinib (first compound 0.4 µM) it was 0.994; in the experiment with BI-D1870 + Crizotinib (first compound 1.265 µM), 1.24. Besides, in the experiment with BI-D1870 + Crizotinib (first compound 4 µM), the relative viability came to 0.922.

Consider NCI-H596, for which the relative viability with BI-D1870 + Bortezomib (first compound 0.04 µM) was determined as 1.38; in the experiment with BI-D1870 + Bortezomib (first compound 0.1265 µM), 0.86; with BI-D1870 + Bortezomib (first compound 0.4 µM) it was 1.12; in the experiment with BI-D1870 + Bortezomib (first compound 1.265 µM), 1.19; in the experiment with BI-D1870 + Bortezomib (first compound 4 µM), 0.943; with Zebularine + Bortezomib (first compound 1 µM), 1.06. Further, the relative viability turned out to be 1.1 in the experiment with Zebularine + Bortezomib (first compound 3.162 µM); 0.725 with Zebularine + Bortezomib (first compound 10 µM); 1.23 with Zebularine + Bortezomib (first compound 31.62 µM); 0.986 with Zebularine + Bortezomib (first compound 100 µM); 1.23 with Zebularine + AZD7762 (first compound 1 µM); 1.09 with Zebularine + AZD7762 (first compound 3.162 µM). Moreover, the relative viability came out at 0.843 with Zebularine + AZD7762 (first compound 10 µM); 1.01 with Zebularine + AZD7762 (first compound 31.62 µM); 1.07 in the experiment with Zebularine + AZD7762 (first compound 100 µM); 0.97 with BI-D1870 + Crizotinib (first compound 0.04 µM); 0.982 with BI-D1870 + Crizotinib (first compound 0.1265 µM); 0.981 with BI-D1870 + Crizotinib (first compound 0.4 µM). Further, the relative viability with BI-D1870 + Crizotinib (first compound 1.265 µM) came to 1.01; in the experiment with BI-D1870 + Crizotinib (first compound 4 µM), 1.16.
